Like-named read-outs stand apart in the source and are kept apart here.
How the values were obtained:
[1] = Samuni et al. 1997; cited from earlier work
[2] = test system: MCF-7 (human breast adenocarcinoma); assay: Cytotoxicity assay (methylene blue); nitroxides alone or doxorubicin plus tempamine; type: cell-based; details: for IC50: Homo sapiens
Experimental: (§1) As described in Example 1, the cytotoxicity of tempamine was determined on three cell lines, MCF-7 (human breast adenocarcinoma), M-109S (doxorubicin-sensitive human breast carcinoma), and M-109R (doxorubicin-resistant human breast carcinoma). The effect of free tempamine on cell proliferation was determined by a methylene blue assay as described in Example 1B.
FIG. 4 is a plot comparing the percent survival of MCF-7 human breast carcinoma cells at various doses of tempamine (closed circles) and tempol (open circles) in vitro. The cells were analyzed after 72 hours of exposure to the nitroxides. Tempamine and tempol cell growth inhibitory activities were of similar magnitude.
(§2) In yet another aspect, the invention contemplates administration of tempamine in combination with chemotherapeutic agent. […] Doxorubicin was chosen as a model chemotherpeutic agent. The enhancement of doxorubicin cytotoxicity by tempamine was tested on three cell lines, as described in Example 1A. A cytotoxicity assay as described in Example 1B was used. Two of the cell lines, MCF-7 and M-109S, were doxorubicin-sensitive lines and one cell line, M-109R, was doxorubicin resistant. MCF-7 cells are more sensitive to tempamine (100 μM caused 75% growth inhibition), but are less sensitive to doxorubicin, than are M-109S cells.
(§3) MCF-7 (human breast adenocarcinoma), M-109S (doxorubicin-sensitive human breast carcinoma), and M-109R (doxorubicin-resistant human breast carcinoma) were maintained in RPMI medium (Biological Industries, Beit HaEmek, Israel) supplemented with 10% fetal calf serum (FCS). The cell lines were maintained under standard culture conditions at 37° C. in a humidified 5% CO2 atmosphere.
(§4) The effect of tempamine on cell proliferation was determined by the methylene blue assay (Horowitz, A. T., et al., Biochim BiophysActa. 1109:203, (1992)). Briefly, cells were seeded onto 96-well plates (MCF cells at a density of 6×10^3 cells per well, and M-109S and M-109R at a density of 1.5×10^3 cells per well) and allowed to grow for 24 hours prior to treatment with different concentrations of tempamine. After the addition of tempamine (5×10^−5 to 4×10^−4), the cells were incubated in RPMI +10% FCS for four days without change of medium. Then the cells were fixed with 2.5% glutaraldehyde, stained with methylene blue and assayed spectrophotometrically.

[3] = test system: M-109S (doxorubicin-sensitive human breast carcinoma); assay: Cytotoxicity assay (methylene blue); tempamine alone or doxorubicin plus tempamine; type: cell-based; details: M-109S; for IC50: Homo sapiens
Experimental: as §1, §2, §3, §4

Row | Structure (SMILES) | affinity to n-octanol versus aqueous phase [1] | IC50 ([2]; MCF7, read-out: IC50 of Doxorubicin (nM) in the presence of 200 μM tempamine, MCF-7) | IC50 ([2]; MCF7, MCF-7, read-out: IC50 of Doxorubicin (nM) in the presence of 0 μM tempamine) | IC50 ([2]; MCF7, MCF-7, read-out: IC50 of Doxorubicin (nM) in the presence of 50 μM tempamine) | IC50 ([2]; MCF7, MCF-7, read-out: IC50 of Doxorubicin (nM) in the presence of 100 μM tempamine) | change of IC50 value of doxorubicin ([2]; MCF-7, in the presence of 100 μM TMN) | IC50 ([3]; read-out: IC50 of Doxorubicin (nM) in the presence of 200 μM tempamine) | IC50 ([3]; read-out: IC50 of Doxorubicin (nM) in the presence of 0 μM tempamine) | IC50 ([3]; read-out: IC50 of Doxorubicin (nM) in the presence of 100 μM tempamine) | observed IC50 of doxorubicin decreased to ([3]; addition of 100-200 μM tempamine) | IC50 ([2]; MCF7, 72 h, read-out: IC50 (cell growth inhibition))
1 | CC1(C)CCCC(C)(C)N1[O] [TEMPO] | much higher affinity to n-octanol than to the aqueous phase |  |  |  |  |  |  |  |  |  | 
2 | COc1cccc2c1C(=O)c1c(O)c3c(c(O)c1C2=O)C[C@@](O)(C(=O)CO)C[C@@H]3O[C@H]1C[C@H](N)[C@H](O)[C@H](C)O1 [doxorubicin] |  | 55 ± 4.1 nM | 487 ± 32 nM | 475 ± 38 nM | 67 ± 5.8 nM | decreased by one order of magnitude | 18 ± 1.1 nM | 60 ± 4 nM | 27 ± 1.7 nM | 50% | 
3 | CC1(C)CC(O)CC(C)(C)N1[O] [tempol] | much higher affinity to n-octanol than to the aqueous phase |  |  |  |  |  |  |  |  |  | 320000 nM

From patent US20040219201A1, “Tempamine compositions and methods of use” (priority 2001, published 2004)
